Laboratory results reported in patent US20230278972A1, “SUBSTITUTED HALOALKYL SULFONANILIDE HERBICIDES” (FMC Corporation, priority 2020, published 2023).

Columns and labels:
Assay type in all cases: in vivo
[1] = system: ducksalad (Heteranthera limosa); assay: Test B1 flooded paddy test, ducksalad; settings: 250 g ai/ha, Flood, applied to paddy water, 2-leaf stage, visually evaluated after 10 to 14 days
Source text: A dash (-) response means no test result.

[2] = system: wheat (Triticum aestivum); assay: Test A1 postemergence, wheat; settings: for Plant response rating, Wheat: Postemergence; for Wheat plant response rating: postemergence
Summary of the method: (§1)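 Test compounds were formulated in a non-phytotoxic solvent mixture containing a surfactant. For preemergence, seeds sown in a loam soil–sand blend received a directed soil spray. For postemergence, potted plants in the same soil, 2 to 10 cm tall at the one- to two-leaf stage, were sprayed.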

soybean (Glycine max) [3] = assay: Test A1 postemergence, soybean; settings: for Plant response rating, Soybean: Postemergence; for Soybean plant response rating: postemergence
Summary of the method: as §1

corn (Zea mays) [4] = assay: Test A1 preemergence, corn
Summary of the method: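 Postemergence species (ragweed, Palmer pigweed, wild oat) were sprayed at one- to two-leaf stage, 2 to 10 cm tall. Corn was treated preemergence by directed soil spray. Both used a loam soil/sand blend and compounds in a non-phytotoxic solvent mixture with surfactant.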

corn (Zea mays) [5] = assay: Test A1 postemergence, corn; settings: Postemergence
Summary of the method: (§2)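 Pre: seeds in loam/sand blend, directed soil spray. Post: potted plants, same soil, 2–10 cm, 1–2 leaf stage. Chemicals in non-phytotoxic solvent + surfactant for both.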

soybean (Glycine max) [6] = assay: Test A1 preemergence, soybean
Summary of the method: as §2

[7] = system: Oat, Wild (wild oat, Avena fatua); assay: Test A1 preemergence, Oat, Wild
Summary of the method: as §2

[8] = system: wheat (Triticum aestivum); assay: Test A1 preemergence, wheat
Summary of the method: as §2

[9] = 31 g ai/ha, 0 to 100 scale (0 no effect, 100 complete control), 10 days
[10] = 31 g ai/ha, 0 to 100 scale (0 no effect, 100 complete control)
[11] = 125 g ai/ha, 0 to 100 scale, 0 no effect, 100 complete control

Row | SMILES | Plant response rating, Ducksalad (0 to 100 scale, 0 is no effect, 100 is complete control) [1] | Plant response rating, Wheat [2, 9] | Plant response rating, Wheat ([2]; 125 g ai/ha, 0 to 100 scale) | Plant response rating, Soybean (soybean (Glycine max) [3]; [9]) | Plant response rating, Soybean (soybean (Glycine max) [3]; 125 g ai/ha, 0 to 100 scale) | Plant response rating, Corn (corn (Zea mays) [4]; [10]) | Plant response rating, Corn (corn (Zea mays) [4]; [11]) | Plant response rating, Corn (corn (Zea mays) [5]; [9]) | Plant response rating, Corn (corn (Zea mays) [5]; 125 g ai/ha, 0 to 100 scale) | Plant response rating, Soybean (soybean (Glycine max) [6]; [10]) | Plant response rating, Soybean (soybean (Glycine max) [6]; [11]) | Plant response rating, Oat, Wild [7, 10] | Plant response rating, Oat, Wild [7, 11] | Plant response rating, Wheat [8, 10] | Plant response rating, Wheat [8, 11] | Wheat plant response rating [2, 10] | Soybean plant response rating (soybean (Glycine max) [3]; [10])
1 | CCC1ON=C(c2cc(NS(=O)(=O)C(F)(F)F)c(C)cc2C)C1CC (stereo not drawn) [Compound 343] | 45 | 30 | 60 | 40 | 60 | 10 | 60 | 10 | 40 | 50 | 60 | 0 | 70 | 10 | 90 | – | –
2 | CCC1ON=C(c2cc(N(COC(=O)C(C)(C)C)S(=O)(=O)C(F)(F)F)c(C)cc2C)C1CC (stereo not drawn) [Compound 344] | 90 | 40 | 70 | 40 | 50 | 10 | 10 | 20 | 50 | 50 | 50 | 0 | 10 | 0 | 0 | – | –
3 | COCC1CC(c2cc(N(COC(=O)C(C)(C)C)S(=O)(=O)C(F)(F)F)c(C)cc2C)=NO1 (stereo not drawn) [Compound 338] | 40 | 20 | 70 | 10 | 40 | 10 | 50 | 10 | 30 | 0 | 20 | 0 | 0 | 0 | 80 | – | –
4 | Cc1c(NS(=O)(=O)C(F)(F)F)cc(C(=O)N2CC(C)OC(C)C2)c(C)c1C (stereo not drawn) [Compound 328] | 90 | 0 | 50 | 60 | 60 | 10 | 60 | 0 | 50 | 50 | 90 | 0 | 30 | 0 | 30 | – | –
5 | C#CCN(C)C(=O)c1cc(NS(=O)(=O)C(F)(F)F)c(Cl)c(F)c1C [Compound 337] | 65 | 0 | 30 | 50 | 70 | 0 | 70 | 30 | 40 | 40 | 90 | 0 | 20 | 10 | 60 | – | –
6 | Cc1c(C(=O)N2CCOCC2)cc(N(COC(=O)C(C)(C)C)S(=O)(=O)C(F)(F)F)c(C)c1C [Compound 324, [[(Trifluoromethyl)sulfonyl][2,3,4-trimethyl-5-(4-morpholinylcarbonyl)phenyl]amino]methyl 2,2-dimethylpropanoate] | 80 | 0 | 30 | 50 | 60 | 20 | 40 | 30 | 30 | 20 | 60 | 20 | 40 | 0 | 70 | – | –
7 | CCc1cc(C)c(C2=NOC3(CCCC3)C2)cc1NS(=O)(=O)C(F)(F)F [Compound 311] | 0 | 0 | 0 | 10 | 40 | 0 | 0 | 0 | 0 | 0 | 0 | 0 | 0 | 0 | 0 | – | –
8 | CCC1ON=C(c2cc(NS(=O)(=O)C(F)(F)F)c(C)cc2C)C1CC (stereo not drawn) [Compound 346] | 65 | 30 | 70 | 30 | 60 | 10 | 20 | 20 | 60 | 50 | 50 | 30 | 80 | 20 | 70 | – | –
9 | Cc1c(NS(=O)(=O)C(F)(F)F)cc(C(=O)N2CCC(C)CC2)c(C)c1C [Compound 366] | 65 | – | 20 | – | 60 | 0 | 10 | 0 | 0 | 0 | 50 | 10 | 30 | 0 | 10 | 0 | 50
10 | C#CCN(C)C(=O)c1cc(N(COC(=O)C(C)(C)C)S(=O)(=O)C(F)(F)F)c(C)c(C)c1C [Compound 371] | 55 | – | 60 | – | 90 | 0 | 90 | 60 | 90 | 0 | 60 | 0 | 0 | 0 | 10 | 0 | 60
11 | Cc1cc(C)c(C2=NOC3(C)CCCC23)cc1NS(=O)(=O)C(F)(F)F (stereo not drawn) [Compound 340] | 45 | 50 | 70 | 50 | 60 | 0 | 90 | 20 | 50 | 40 | 90 | 0 | 90 | 20 | 90 | – | –
12 | Cc1c(NS(=O)(=O)C(F)(F)F)cc(C(=O)N2CC(C)OC(C)C2)c(C)c1C (stereo not drawn) [Compound 327] | 85 | 0 | 50 | 60 | 60 | 0 | 60 | 10 | 40 | 30 | 90 | 0 | 70 | 0 | 30 | – | –
13 | C#CCN(C)C(=O)c1cc(NS(=O)(=O)C(F)(F)F)c(C)c(C)c1C [Compound 368] | 60 | – | 60 | – | 90 | 0 | 90 | 40 | 90 | 90 | 100 | 10 | 20 | 20 | 100 | 20 | 70
14 | Cc1cc(C)c(N(COC(=O)C(C)(C)C)S(=O)(=O)C(F)(F)F)cc1C1=NOC2(C)CCCC12 (stereo not drawn) [Compound 341] | 45 | 0 | 70 | 40 | 50 | 0 | 0 | 0 | 0 | 0 | 0 | 0 | 0 | 0 | 0 | – | –
15 | COC1CCN(C(=O)c2cc(N(COC(=O)C(C)(C)C)S(=O)(=O)C(F)(F)F)c(C)c(C)c2C)CC1 [Compound 370] | 70 | – | 20 | – | 80 | 0 | 0 | 0 | 90 | 0 | 0 | 0 | 0 | 0 | 10 | 10 | 50
16 | Cc1c(NS(=O)(=O)C(F)(F)F)cc(C(=O)N2CCCCC2)c(C)c1C [Compound 326] | 85 | 0 | 0 | 70 | 70 | 0 | 90 | 0 | 0 | 40 | 90 | 10 | 10 | 0 | 50 | – | –
